According to patent publication US20230348465A1, “IBOGAINE ANALOGS AS THERAPEUTICS FOR NEUROLOGICAL AND PSYCHIATRIC DISORDERS” (The Trustees of Columbia University in the City of New York, priority 2020, published 2023):
Where two headings read alike, the source gives them in different places.

Columns and labels:
[1] = Metabolic stability and noribogaine formation in rat liver microsomes (RLM), LC-MS/MS; details: for percent remaining of parent compound: 10 µM, + NADPH; for CLh,int: 45 mg microsomal protein per gm liver; for % Remaining at 60 min (- NADPH): without NADPH; for %Remaining at 60 min (Buffer): buffer control, RLM column; for half-life at 10 µM: male, rat, microsomes, pH 7.4
Protocol: (§1) Metabolism Studies. Metabolic stability of test compounds was evaluated in liver microsomes from rat (RLM) and human (HLM). This was accomplished by incubating test compounds with microsomes and monitoring disappearance of parent compound as well as metabolite formation over time using LC-MS/MS in Multiple Reaction Monitoring mode (MRM).
(§2) Stock solutions of test compounds were prepared in DMSO at a concentration of 10 mM.
(§3) From the above mix, 70 µL was added to individual wells of 96 well reaction plates and preincubated at 37° C. for 5 min. […] Reactions without NADPH and buffer controls (minus NADPH) at 0 min and 60 min were also incubated to rule out non-NADPH metabolism or chemical instability in the incubation buffer. All reactions were terminated using 100 µL of ice-cold acetonitrile containing internal standard (glipizide) at 0, 5, 15, 30 and 60 min.
(§4) Samples were monitored for parent compounds disappearance and formation of metabolite in MRM mode using LC-MS/MS instrument (API-4000 with Waters UPLC).
(§5) The percent remaining of test compounds and positive control in each sample was determined by considering peak area ratio in the 0 minute sample as 100%. The Half-life of compounds in microsomes is calculated by formula: […]
(§6) In vitro intrinsic clearance (CL´int) (units in mL/min/kg) was calculated using the formula: […]
(§7) * Indicates liver weight (gm) which varies species wise. For human, monkey, dog, rat and mouse the liver weight are 20 gm, 32 gm, 32 gm, 40 gm and 90 gm respectively.

rVMAT2 = target: T1, rVMAT2 (Rattus norvegicus, UniProt Q01827); test: rVMAT2 screening assay: inhibition of uptake of the fluorescent substrate FFN206 in stably transfected rVMAT2-HEK cells; type: cell-based; details: for Ki: read-out: VMAT2 Ki
T1 construct: expressed in transfected cells; host or cells: HEK cells, stably transfected (rVMAT2-HEK)
T1 sequence (Q01827 whole entry): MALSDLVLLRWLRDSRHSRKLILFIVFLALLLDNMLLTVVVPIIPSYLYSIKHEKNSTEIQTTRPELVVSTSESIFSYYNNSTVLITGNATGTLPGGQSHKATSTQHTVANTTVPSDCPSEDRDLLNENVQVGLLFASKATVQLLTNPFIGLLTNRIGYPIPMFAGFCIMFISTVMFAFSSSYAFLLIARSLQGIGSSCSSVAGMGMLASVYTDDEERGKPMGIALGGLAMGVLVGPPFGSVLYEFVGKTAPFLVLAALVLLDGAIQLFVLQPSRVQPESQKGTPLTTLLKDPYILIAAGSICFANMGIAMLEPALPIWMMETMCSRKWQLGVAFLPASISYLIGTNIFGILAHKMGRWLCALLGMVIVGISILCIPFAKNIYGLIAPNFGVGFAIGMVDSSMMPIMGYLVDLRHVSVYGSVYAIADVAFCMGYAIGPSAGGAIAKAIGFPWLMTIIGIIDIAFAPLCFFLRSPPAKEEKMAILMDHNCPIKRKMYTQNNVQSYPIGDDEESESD
Protocol: (§8) Stably transfected hSERT-HEK and rVMAT2-HEK cellular cultures were maintained in Dulbecco’s Minimal Essential Medium (DMEM) with GlutaMAX (Gibco) with the following additions: 10% (v/v) Fetal Bovine Serum (FBS, Atlanta Biologicals), 100 U/mL Penicillin, and 10 µg/mL Streptomycin (Gibco). With regards to the former cell lineage, an additional ingredient, 500 µg/mLGeneticin (G418) (Sigma) was included to preserve the respective transgene.
(§9) For both hSERT and rVMAT2 screening experiments, respective singly transfected cells were seeded at a density of 0.09 × 10^6 cells/well in poly-D-Lysine (Sigma) coated white solid-bottom 96-well plates. Growth was permitted for approximately 44 hours in said aqueous media and at an incubation environment of 37° C. and 5% Carbon Dioxide. At the beginning of the experiment, the cellular growth solution was aspirated, and individual cells were rinsed with 150 µL of 1× Dulbecco’s Phosphate Buffered Saline (PBS; HyClone). 63 µL of Experimental Media (consisting of the following contents: DMEM without phenol red but with 4.5 g/L of D-Glucose (Gibco), 1 % (v/v) FBS (Atlanta Biologicals), 100 U/mL Penicillin, and 10 µg/mLStreptomycin (Gibco)) with 2 × tiered concentrations of inhibitor (or DMSO, the vehicle of these experiments) were added to the respective wells. […] After a required incubation period of 30 minutes for proper fluorescent probe uptake, the contents of each well were aspirated and consequently, rinsed twice with 120 µL of PBS. A final solution of 120 µL of PBS is finally added to all corresponding wells for cell maintenance before undergoing fluorescence uptake reading by a BioTek H1MF plate reader.
(§10) Numerical analysis of the collected experimental data preceded as accordingly. Respective inhibitor values were first subtracted from vehicular values to quantify the respective fluorescence uptake. This metric was then analyzed using the dose-response-inhibitor nonlinear curve fitting model ([inhibitor] vs response (three parameters)) as supplied by GraphPad Prism 6 software. For each inhibitor, the model supplied a respective IC50 ± SEM value (Table 1).

[2] = Metabolic stability and noribogaine formation in human liver microsomes (HLM), LC-MS/MS; details: for percent remaining of parent compound / CLh,int / % Remaining at 60 min (+ NADPH) / % Remaining at 60 min (- NADPH): HLM; for percent remaining of parent compound: 10 µM, + NADPH; for CLh,int: 45 mg microsomal protein per gm liver; for % Remaining at 60 min (+ NADPH): summary line; for % Remaining at 60 min (- NADPH): without NADPH; for %Remaining at 60 min (Buffer): buffer control, HLM column; for half-life at 10 µM: human, microsomes, pH 7.4
Protocol: as §1, §2, §3, §4, §5, §6, §7

hSERT = target: T2, hSERT (Homo sapiens, UniProt P31645); test: hSERT screening assay: inhibition of uptake of the fluorescent substrate APP+ in stably transfected hSERT-HEK cells; type: cell-based; details: for IC50: hSERT-HEK cells, APP+ 1.1 µM, mean ± SEM, n ≥ 4, read-out: SERT IC50; for Ki: Cheng-Prusoff from IC50, Km (APP+) = 1.6 µM, read-out: SERT Ki
T2 construct: expressed in transfected cells; host or cells: HEK cells, stably transfected (hSERT-HEK), kept under G418
T2 sequence (P31645 whole entry): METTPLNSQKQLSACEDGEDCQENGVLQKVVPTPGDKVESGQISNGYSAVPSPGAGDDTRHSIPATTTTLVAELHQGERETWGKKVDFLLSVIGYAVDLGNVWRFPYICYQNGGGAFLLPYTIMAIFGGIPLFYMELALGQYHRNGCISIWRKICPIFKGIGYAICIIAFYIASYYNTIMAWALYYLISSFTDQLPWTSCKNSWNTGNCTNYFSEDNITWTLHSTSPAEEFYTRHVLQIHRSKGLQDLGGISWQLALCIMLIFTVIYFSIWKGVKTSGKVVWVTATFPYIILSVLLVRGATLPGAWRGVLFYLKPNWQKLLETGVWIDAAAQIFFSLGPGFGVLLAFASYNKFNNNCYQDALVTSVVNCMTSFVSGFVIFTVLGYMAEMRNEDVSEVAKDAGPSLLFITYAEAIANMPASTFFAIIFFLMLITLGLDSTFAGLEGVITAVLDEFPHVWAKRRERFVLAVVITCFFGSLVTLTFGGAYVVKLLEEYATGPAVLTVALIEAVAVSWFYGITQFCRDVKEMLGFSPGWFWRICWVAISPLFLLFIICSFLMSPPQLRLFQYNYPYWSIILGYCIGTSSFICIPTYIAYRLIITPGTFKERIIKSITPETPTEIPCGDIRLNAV
Protocol: as §8, §9, §10

[3] = rVMAT2-HEK cells, FFN206 0.75 µM, mean ± SEM, n ≥ 4, read-out: VMAT2 IC50
[4] = ratio of potency to noribogaine

## CCOc1ccc2[nH]c3c(c2c1)CCN1CC2CC(CC)C1C3C2 (centres unmarked) [10-Ethoxy-ibogamine]
[1]; RLM, 0 min
  percent remaining of parent compound: 100%
[1]; RLM
  CLh,int: 445 mL/min/kg
  % Remaining at 60 min (- NADPH): 88%
[1]; RLM, 5 min
  percent remaining of parent compound: 77%
[1]; RLM, 15 min
  percent remaining of parent compound: 42%
[1]; RLM, 30 min
  percent remaining of parent compound: 3%
[1]; RLM, 60 min
  percent remaining of parent compound: 0%
[1]; RLM, summary line
  % Remaining at 60 min (+ NADPH): 0%
[1]
  %Remaining at 60 min (Buffer): 88%
  half-life at 10 µM: 6 min
rVMAT2
  VMAT2 inhibition, result in words: potent VMAT2 inhibitor
  Ki: 50 ± 10 nM
rVMAT2; listed as 10-Ethoxy-ibogaine
  VMAT2 inhibition, result in words: nearly an order of magnitude more potent
rVMAT2; [3]
  IC50: 80 ± 20 nM
[2]; 0 min
  percent remaining of parent compound: 100%
[2]
  CLh,int: 13 mL/min/kg
  % Remaining at 60 min (+ NADPH): 66%
  % Remaining at 60 min (- NADPH): 106%
  %Remaining at 60 min (Buffer): 88%
  half-life at 10 µM: > 60 min
[2]; 5 min
  percent remaining of parent compound: 103%
[2]; 15 min
  percent remaining of parent compound: 98%
[2]; 30 min
  percent remaining of parent compound: 85%
[2]; 60 min
  percent remaining of parent compound: 66%
hSERT
  SERT inhibition, result in words: only a weak inhibitor of SERT
  IC50: 9000 ± 1100 nM

## CCC1CC2CC3c4[nH]c5ccc(C(N)=O)cc5c4CCN(C2)C13 (centres unmarked) [Compound 2, Ibogamine-10-carboxamide]
rVMAT2; [3]
  IC50: 3000 ± 570 nM
hSERT
  IC50: 2500 ± 290 nM

## CCC1CC2CC3c4[nH]c5ccc(C#N)cc5c4CCN(C2)C13 (centres unmarked) [Compound 3, Ibogamine-10-carbonitrile]
rVMAT2; [3]
  IC50: 3300 ± 430 nM
hSERT
  IC50: 26 ± 3.8 nM

## CCCOc1ccc2[nH]c3c(c2c1)CCN1CC2CC(CC)C1C3C2 (centres unmarked) [Compound 4, 10-Propoxy-ibogamine]
hSERT
  IC50: 3000 ± 500 nM

## CCC1CC2CC3c4[nH]c5ccccc5c4CCN(C2)C13 (centres unmarked) [Compound 5, Ibogamine]
rVMAT2; [3]
  IC50: 3000 ± 550 nM
rVMAT2; [4]
  times weaker than noribogaine at VMAT2: approximately 5.3
rVMAT2
  Ki: 1800 ± 340 nM
hSERT
  Ki: 200 ± 20 nM
  IC50: 330 ± 40 nM

## CCC1CC2CC3c4c(c5ccccc5n4C)CCN(C2)C13 (centres unmarked) [Compound 6, N-methyl-ibogamine]
rVMAT2; [3]
  IC50: 1500 ± 160 nM
hSERT
  IC50: 80 ± 9 nM

## CCC1CC2CC3c4c(c5cc(OC)ccc5n4C)CCN(C2)C13 (centres unmarked) [Compound 7, N-methyl-ibogaine]
rVMAT2; [3]
  IC50: 740 ± 110 nM
hSERT
  IC50: 1500 ± 130 nM

## CCC1CC2CC3c4c(c5cc(O)ccc5n4C)CCN(C2)C13 (centres unmarked) [Compound 8, N-methyl-noribogaine]
rVMAT2; [3]
  IC50: 170 ± 30 nM
rVMAT2; [4]
  times more potent than noribogaine at VMAT2: approximately 3.4
rVMAT2
  Ki: 100 ± 20 nM
hSERT
  Ki: 35 ± 6.7 nM
  IC50: 59 ± 11 nM
hSERT; [4]
  times more potent than noribogaine at SERT: approximately 4.7

## CCC1CC2CC3c4c(c5cc(C#N)ccc5n4C)CCN(C2)C13 (centres unmarked) [Compound 10, N-methyl-ibogamine-10-carbonitrile]
rVMAT2; [3]
  IC50: 440 ± 50 nM
hSERT
  IC50: 5.1 ± 0.83 nM

## CCc1ccc2c(c1)c1c(n2C)C2CC3CC(CC)C2N(CC1)C3 (centres unmarked) [Compound 11, N-methyl-10-ethyl-ibogamine]
rVMAT2; [3]
  IC50: 750 ± 70 nM
hSERT
  IC50: 910 ± 120 nM

## CCC1CC2CC3c4c(c5cc(O)ccc5n4CC)CCN(C2)C13 (centres unmarked) [Compound 13, N-ethyl-noribogaine]
rVMAT2; [3]
  IC50: 70 ± 10 nM
hSERT
  IC50: 1900 ± 200 nM

## CCOc1ccc2c(c1)c1c(n2C)C2CC3CC(CC)C2N(CC1)C3 (centres unmarked) [Compound 14, N-methyl-10-ethoxy-ibogamine]
hSERT
  IC50: 2800 ± 380 nM

## CCC1CC2CC3c4[nH]c5ccc(OC)c(Br)c5c4CCN(C2)C13 (centres unmarked) [Compound 17, 9-Bromo-ibogaine]
rVMAT2; [3]
  IC50: 4900 ± 870 nM
rVMAT2; [4]
  times weaker than noribogaine at VMAT2: ~8.6
rVMAT2
  Ki: 3000 ± 530 nM
hSERT
  Ki: 400 ± 90 nM
  IC50: 670 ± 160 nM
hSERT; [4]
  times less potent than noribogaine at SERT: approximately 2.4

## CCC1CC2CC3c4[nH]c5cc(Br)c(OC)cc5c4CCN(C2)C13 (centres unmarked) [Compound 18, 11-Bromo-ibogaine]
rVMAT2; [3]
  IC50: 1000 ± 150 nM
hSERT
  IC50: 200 ± 30 nM

## CCC1CC2CC3c4[nH]c5ccc(OC)c(Cl)c5c4CCN(C2)C13 (centres unmarked) [Compound 19, 9-Chloro-ibogaine]
rVMAT2; [3]
  IC50: 18000 ± 5900 nM
hSERT
  IC50: 1200 ± 120 nM

## CCC1CC2CC3c4[nH]c5ccc(OC)cc5c4CCN(C2)C13 (centres unmarked) [Ibogaine]
[1]; RLM, 0 min
  percent remaining of parent compound: 100%
[1]; RLM
  CLh,int: 306 mL/min/kg
  % Remaining at 60 min (- NADPH): 104%
[1]; RLM, 5 min
  percent remaining of parent compound: 86%
[1]; RLM, 15 min
  percent remaining of parent compound: 56%
[1]; RLM, 30 min
  percent remaining of parent compound: 23%
[1]; RLM, 60 min
  percent remaining of parent compound: 1%
[1]
  %Remaining at 60 min (Buffer): 103%
  half-life at 10 µM: 8 min
rVMAT2
  IC50: ~4000 nM
[2]; 0 min
  percent remaining of parent compound: 100%
[2]
  CLh,int: 7 mL/min/kg
  % Remaining at 60 min (+ NADPH): 81%
  % Remaining at 60 min (- NADPH): 98%
  %Remaining at 60 min (Buffer): 103%
  half-life at 10 µM: > 60 min
[2]; 5 min
  percent remaining of parent compound: 104%
[2]; 15 min
  percent remaining of parent compound: 98%
[2]; 30 min
  percent remaining of parent compound: 94%
[2]; 60 min
  percent remaining of parent compound: 81%

## CC[C@H]1C[C@H]2C[C@H]3c4[nH]c5ccc(O)cc5c4CCN(C2)[C@@H]13 [Noribogaine, reference compound]
rVMAT2; Cheng-Prusoff from IC50, Km (FFN206) = […]
  Ki: 350 ± 40 nM
rVMAT2; [3]
  IC50: 570 ± 80 nM
hSERT
  SERT inhibition, result in words: potent SERT inhibitor
